Measurements published in article PMC8880098, “Synthesis, Antibacterial Evaluation, and Computational Studies of a Diverse Set of Linezolid Conjugates” (Pharmaceuticals, 2022).
In brackets after ≈: the same amount, converted by molar mass. Like-named read-outs stand apart in the source and are kept apart here.

Legend:
[1] = tested on: Staphylococcus aureus ATCC 6538; test: Antibacterial MIC, microdilution susceptibility test (CLSI); type: cell-based; conditions: Staphylococcus aureus, ATCC6538, 24 h, Mueller–Hinton broth, 37 °C, 24 h; read-out: MIC, μg/mL ± SE, S. Aureus (ATCC 6538)
Text: (§1) The synthesized linezolid conjugates (3a–k, 5a–f, 7a–c, 9a–c, 11a–f, 13, and 15) were subjected for antimicrobial properties determination against Gram-positive (Staphylococcus aureus ATCC 6538, Bacillus subtilis ATCC 6633) and Gram-negative (Pseudomonas aeruginosa ATCC 15692, Escherichia coli ATCC 47076) bacteria by the standard technique.
(§2) Antibacterial properties of the synthesized compounds (3a–k, 5a–f, 7a–c, 9a–c, 11a–f, 13 and 15) were screened against Gram-positive (Staphylococcus aureus ATCC 6538, Bacillus subtilis ATCC 6633) and Gram-negative (Pseudomonas aeruginosa ATCC 15,692 and Escherichia coli ATCC 47076) bacteria utilizing the standard technique. Linezolid was used as a standard reference/drug in the current study. The tested bacterial strains were obtained from MERCIN Center, Faculty of Agriculture, Ain Shams University, Cairo, Egypt.
(§3) To determine the antibacterial activity, stock solutions of the tested compounds and standard reference were prepared with up to 100% DMSO and stored at […]. If necessary, the solutions were heated to 40–60 °C before testing to facilitate complete dissolution. Double distilled water was used in all dilutions prepared. […] A microdilution susceptibility test was used for MIC determination (Mueller–Hinton broth in 96-well plates) according to the CLSI (the Clinical and Laboratory Standards Institute, Malvern, PA, USA). The bacterial inoculum was adjusted to approximately 2.5–3 × 10^4 cells/mL in Mueller–Hinton broth and incubated in a ratio of 1:1 with the test derivatives in polystyrene 96-well flat-bottom microplates. Positive growth control (without test derivatives) and negative control (without bacteria) were included. The microplates were placed in an incubator set to 37 °C for 24 h. Absorbance was measured at 620 nm at the end of the incubation period. The cut-off level for follow-up studies was defined as a minimum of 90% inhibition of growth compared to the untreated sample. Experiments were conducted once in triplicate. For selected compounds, minimum inhibitory concentration (MIC) values were determined by dose–response experiments. Experiments were performed at least twice, in triplicate per concentration tested.

[2] = tested on: Escherichia coli ATCC 47076; test: as above; type: cell-based
Text: as §1, §2, §3

[3] = tested on: Bacillus subtilis ATCC 6633; test: as above; type: cell-based; conditions: Bacillus subtilis, ATCC6633, 24 h, Mueller–Hinton broth, 37 °C, 24 h; read-out: MIC, μg/mL ± SE, B. Subtilis (ATCC 6633)
Text: as §1, §2, §3

[4] = tested on: Pseudomonas aeruginosa ATCC 15692; test: as above; type: cell-based
Text: as §1, §2, §3

[5] = tested on: Staphylococcus aureus ATCC 6538; test: microbe, parasite or virus in culture; design: species or system bacteria; Broth microdilution MIC in Mueller-Hinton broth, absorbance at 620 nm; conditions: ATCC6538, 24 h, read-out: Observed MIC, uM (S. aureus)
Text: as §3, with “Antibacterial properties of the synthesized compounds (3a–k, 5a–f, 7a–c, 9a–c, 11a–f, 13 and 15) were screened against Gram-positive (Staphylococcus aureus ATCC 6538, Bacillus subtilis ATCC 6633) and Gram-negative (Pseudomonas aeruginosa ATCC 15,692 and Escherichia coli ATCC 47076) bacteria utilizing the standard technique. Linezolid was used as a standard reference/drug in the current study. The tested bacterial strains were obtained from MERCIN Center, Faculty of Agriculture, Ain Shams University, Cairo, Egypt. To” for “To”

[6] = tested on: Bacillus subtilis ATCC 6633; test: microbe, parasite or virus in culture; design: species or system bacteria; Broth microdilution MIC in Mueller-Hinton broth, absorbance at 620 nm; conditions: ATCC6633, 24 h, read-out: Observed MIC, uM (B. subtilis)
Text: as §3, with “Antibacterial properties of the synthesized compounds (3a–k, 5a–f, 7a–c, 9a–c, 11a–f, 13 and 15) were screened against Gram-positive (Staphylococcus aureus ATCC 6538, Bacillus subtilis ATCC 6633) and Gram-negative (Pseudomonas aeruginosa ATCC 15,692 and Escherichia coli ATCC 47076) bacteria utilizing the standard technique. Linezolid was used as a standard reference/drug in the current study. The tested bacterial strains were obtained from MERCIN Center, Faculty of Agriculture, Ain Shams University, Cairo, Egypt. To” for “To”

[7] = ATCC47076, Mueller–Hinton broth, 37 °C, 24 h, read-out: MIC, μg/mL ± SE, E. Coli (ATCC 47076)
[8] = ATCC47076, value in parentheses, read-out: MIC (μmol), E. Coli (ATCC 47076) (converted)
[9] = ATCC15692, Mueller–Hinton broth, 37 °C, 24 h, read-out: MIC, μg/mL ± SE, P. Aeruginosa (ATCC 15692)
[10] = ATCC15692, value in parentheses, read-out: MIC (μmol), P. Aeruginosa (ATCC 15692) (converted)

## O=C(NC[C@H]1CN(c2ccc(N3CCOCC3)c(F)c2)C(=O)O1)c1cccc([N+](=O)[O-])c1Cl [Compound 5f, (S)-2-Chloro-N-((3-(3-fluoro-4-morpholinophenyl)-2-oxooxazolidin-5-yl)methy-l)-3-nitrobenzamide]
other
  melting point: 200 to 202 °C
[1]
  MIC: 8 ± 0.2 µg/mL (≈ 16.7 µM)
[2]; [7]
  MIC: 32 ± 0.6 µg/mL
[2]; [8]
  MIC: 66.8 µM
[3]
  MIC: 4 ± 0.3 µg/mL (≈ 8.35 µM)
[4]; [9]
  MIC: 32 ± 1.4 µg/mL
[4]; [10]
  MIC: 66.8 µM
[5]
  MIC: 16.7 µM (≈ 8 µg/mL)
[6]
  MIC: 8.35 µM (≈ 4 µg/mL)

## O=C(NC[C@H]1CN(c2ccc(N3CCOCC3)c(F)c2)C(=O)O1)c1cccnc1 [Compound 7b, (S)-N-((3-(3-Fluoro-4-morpholinophenyl)-2-oxooxazolidin-5-yl)methyl)nicotinamide]
other
  melting point: 182 to 184 °C
[1]
  MIC: 8 ± 0.2 µg/mL (≈ 20 µM)
[2]; [7]
  MIC: 32 ± 1 µg/mL
[2]; [8]
  MIC: 79.9 µM
[3]
  MIC: 2 ± 0.1 µg/mL (≈ 4.99 µM)
[4]; [9]
  MIC: 32 ± 1.2 µg/mL
[4]; [10]
  MIC: 79.9 µM
[5]
  MIC: 20 µM (≈ 8 µg/mL)
[6]
  MIC: 5 µM (≈ 2 µg/mL)

## O=C(NC[C@H]1CN(c2ccc(N3CCOCC3)c(F)c2)C(=O)O1)c1cnccn1 [Compound 7c, (S)-N-((3-(3-Fluoro-4-morpholinophenyl)-2-oxooxazolidin-5-yl)methyl)pyrazine-2-carboxamide]
other
  melting point: 190 to 192 °C
[1]
  MIC: 8 ± 0.1 µg/mL (≈ 19.9 µM)
[2]; [7]
  MIC: 32 ± 0.7 µg/mL
[2]; [8]
  MIC: 79.7 µM
[3]
  MIC: 2 ± 0.1 µg/mL (≈ 4.98 µM)
[4]; [9]
  MIC: 32 ± 1.1 µg/mL
[4]; [10]
  MIC: 79.7 µM
[5]
  MIC: 19.9 µM (≈ 8 µg/mL)
[6]
  MIC: 4.98 µM (≈ 2 µg/mL)

## CC(C)C[C@H](NC(=O)c1cnccn1)C(=O)NC[C@H]1CN(c2ccc(N3CCOCC3)c(F)c2)C(=O)O1 [Compound 9a, N-((S)-1-((((S)-3-(3-Fluoro-4-morpholinophenyl)-2-oxooxazolidin-5-yl)methyl)amino) -4-methyl-1-oxopentan-2-yl)pyrazine-2-carboxamide]
other
  melting point: 90 to 92 °C
[1]
  MIC: 32 ± 0.4 µg/mL (≈ 62.2 µM)
[2]; [7]
  MIC: 32 ± 1.6 µg/mL
[2]; [8]
  MIC: 62.2 µM
[3]
  MIC: 32 ± 2 µg/mL (≈ 62.2 µM)
[4]; [9]
  MIC: 32 ± 1.3 µg/mL
[4]; [10]
  MIC: 62.2 µM
[5]
  MIC: 62.2 µM (≈ 32 µg/mL)
[6]
  MIC: 62.2 µM (≈ 32 µg/mL)

## CC(C)[C@H](NC(=O)c1cnccn1)C(=O)NC[C@H]1CN(c2ccc(N3CCOCC3)c(F)c2)C(=O)O1 [Compound 9b, N-((S)-1-((((S)-3-(3-Fluoro-4-morpholinophenyl)-2-oxooxazolidin-5-yl)methyl)amino) -3-methyl-1-oxobutan-2-yl)pyrazine-2-carboxamide]
other
  melting point: 94 to 96 °C
[1]
  MIC: 32 ± 1.7 µg/mL (≈ 63.9 µM)
[2]; [7]
  MIC: 32 ± 3.4 µg/mL
[2]; [8]
  MIC: 63.9 µM
[3]
  MIC: 32 ± 1.3 µg/mL (≈ 63.9 µM)
[4]; [9]
  MIC: 32 ± 2.5 µg/mL
[4]; [10]
  MIC: 63.9 µM
[5]
  MIC: 63.9 µM (≈ 32 µg/mL)
[6]
  MIC: 63.9 µM (≈ 32 µg/mL)

## O=C(N[C@@H](Cc1ccccc1)C(=O)NC[C@H]1CN(c2ccc(N3CCOCC3)c(F)c2)C(=O)O1)c1cnccn1 [Compound 9c, N-((S)-1-((((S)-3-(3-Fluoro-4-morpholinophenyl)-2-oxooxazolidin-5-yl)methyl)amino) -1-oxo-3-phenylpropan-2-yl)pyrazine-2-carboxamide]
other
  melting point: 172 to 174 °C
[1]
  MIC: 32 ± 0.9 µg/mL (≈ 58.3 µM)
[2]; [7]
  MIC: 32 ± 1 µg/mL
[2]; [8]
  MIC: 58.3 µM
[3]
  MIC: 32 ± 0.5 µg/mL (≈ 58.3 µM)
[4]; [9]
  MIC: 32 ± 0.8 µg/mL
[4]; [10]
  MIC: 58.3 µM
[5]
  MIC: 58.3 µM (≈ 32 µg/mL)
[6]
  MIC: 58.3 µM (≈ 32 µg/mL)

## O=C1O[C@@H](CNCc2ccc(F)cc2F)CN1c1ccc(N2CCOCC2)c(F)c1 [Compound 11e, (S)-5-[{(2,4-Difluorobenzyl)amino}methyl]-3-(3-fluoro-4-morpholinophenyl) oxazolid-ine-2-one]
other
  melting point: 74 to 76 °C
[1]
  MIC: 32 ± 0.2 µg/mL (≈ 75.9 µM)
[2]; [7]
  MIC: 32 ± 0.3 µg/mL
[2]; [8]
  MIC: 75.9 µM
[3]
  MIC: 32 ± 1.3 µg/mL (≈ 75.9 µM)
[4]; [9]
  MIC: 32 ± 0.5 µg/mL
[4]; [10]
  MIC: 75.9 µM
[5]
  MIC: 75.9 µM (≈ 32 µg/mL)
[6]
  MIC: 75.9 µM (≈ 32 µg/mL)
